Measurements reported in patent publication US20180369186A1, “METHOD FOR MODULATING AUTOPHAGY AND APPLICATIONS THEREOF” (JAWAHARLAL NEHRU CENTRE FOR ADVANCED SCIENTIFIC RESEARCH, priority 2015, published 2018).

How the values were obtained:
[1] = Open field test in MPTP mice; format: in vivo; conditions: 5 mg/kg
Description: All the behavioural experiments are done on 3-4 month old, male C57/B16 mice. Experimenters are blind to the drug injected animals. Experimenters handle mice used for behavioral experiments for 3 consecutive days prior to the training paradigm. Behavioral experiments are designed in an order of low to high stress activity for mice. Therefore, Open Field Test is conducted in forenoon while rotarod is performed in the afternoon.
Mice were habituated to the behaviour room for 15 minutes every day before start of experiments. The light intensity is maintained at 100 lux throughout the experiment. Mice are weighed every day before training or test to ensure their good health. Mice are randomly allocated into three treatment cohorts: placebo control, MPTP and 6-Bio. Data is plotted using GraphPad prism 5 software.
Open field arena (50 cm×50 cm×45 cm) is custom-made (JNCASR) using plywood and the internal surface was coated with white polish. Mice are trained in open field for 2 consecutive days prior to drug injection. […] The activity is video recorded (SONY® color video camera, Model no. SSC-G118) using a software (SMART v3.0.04 from Panlah, Harvard Apparatus, USA). […] Distance travelled is analyzed offline by an experimenter who was not involved in performing the experiment.

p62/SQSTM1 = experiment: p62 aggregate immunofluorescence in MEFs; format: cell-based, mouse; conditions: 5 μM, 24 h and 48 h
Description: Immunofluorescence analysis in MEFs is carried out by fixing the cells with 4% methanol free paraformaldehyde for 15 minutes, permeabilised with 0.5% TritonX-100 in PBS for 10 minutes, and then blocking with 5% FES in PBS for 30 minutes at room temperature, along with PBS washes in between every steps. Anti-p62 antibody (Progen Biotechnik, GP62-C) is used at 1:250 dilution in […] in PBS and incubated overnight at 4° C. Cells are then washed and incubated with goat anti-guinea pig Alexa 594 (ThermoFisher Scientific, A-15 11076) secondary antibody at 1:1000 dilution for 1 hour at room temperature. Cells are washed, counterstained with DAPI (ThermoFisher Scientific, D1306) in PBS for 5 minutes, washed again and then mounted using Prolong diamond anti-fade reagent (ThermoFisher Scientific, P36970). Slides are imaged using a Zeiss LSM 510 Meta Confocal Microscope using 100× objective. Analysis is performed by assessing for the percentage of cells displaying an accumulation of endogenous p62-positive aggregates.
Analysis of p62 aggregates is done as described previously. […] The percentage of cells with increased p62+ aggregates is quantified by assessing 200 cells per condition from independent experiments, in which a cell with an accumulation of p62+ aggregates was given a score of 1 whereas a cell having basal (low) levels of p62+ aggregates was given a score of 0.

aminopeptidase = experiment: Protease protection assay with aminopeptidase; format: cell-based, S. cerevisiae; conditions: starvation
Description: To elucidate the step of action of Bay11, a protease protection assay is performed using aminopeptidase as a marker, which is also a substrate for starvation-induced autophagy. Untreated cells in presence of proteinase K show both the precursor as well as the matured form due to the autophagosome-sequestered membrane-protected cargo and the cytosolic free form, respectively (FIGS. 22D and 22E). […] Combined treatment with Proteinase K and triton X-100 results in conversion of all the precursor form to the matured form in both treated and untreated groups.

p62, MAP1LC3B-II = experiment: p62 and MAP1LC3B immunoblotting in Atg5+/+ and Atg5−/− MEFs; format: cell-based, mouse; conditions: 5 μM, 24 h
Description: Western blotting is performed using standard methods. Immunoblotting in MEFs is carried out as described previously. Dilutions of primary antibodies used are as follows: Anti-p62 1:1000 (Progen Biotechnik, GP62-C), Anti-MAP1LC3B 1:3000 (Nevus Biologicals, NB100-2220) and Anti-GAPDH (Cell Signalling Technologies, 2118S). Secondary antibodies conjugated to HRP are used at 1:10000 dilution as follows: Anti-Guinea-Pig-HRP (Abeam, ab50210) and Anti-Rabbit-HRP (Calbiochem, 401393).

MAP1LC3B = MAP1LC3B conversion assay in HeLa cells; format: cell-based, human
Description: Total cell lysates are electrophoresed on different 1 percentages of SDS-PAGE based on the desired protein size and transferred onto PVDF membrane at constant current of 2 Ampere for 30 minutes (Transblot turbo, Bio-Rad Inc, USA). Transfer is confirmed by Ponceau S staining of blot and the blots scanned are used as loading controls. Blots are incubated overnight with 5% skim milk in primary antibody (Anti-GFP, Roche #11814460001, Anti-MAP1LC3B, CST #L7543). Secondary antibody used at 1:10.000 is goat anti-mouse (Bio-7 Rad #172-1011) or goat anti-rabbit antibody (Bio-Rad #172-1019) conjugated to HRP. Blots are developed by using ECL substrate (Thermo Scientific #34087 or Bio-Rad #170-5061) and images captured using auto capture program in Syngene G-Box, UK. image J (NIH) are used for quantitation of band intensities.
For mammalian cells, following appropriate treatments, cells are washed with ice cold PBS. Cells are then lysed in 100 μl of sample buffer (10% w/v SDS, 10 mM DTT, 20% v/v glycerol, 0.2 Tris-HCL pH 6.8, 0.05% w/v bromophenol blue) and then collected using a rubber cell scraper. The lysates are boiled at 99° C. for 15 minutes and stored at −20° C.

LC3-II = experiment: LC3 processing assay in SH-SY5Y cells; format: cell-based, human; conditions: 5 μM, 2 h; untreated vs treated
Description: The autophagy assays are performed by seeding equal numbers of sub-confluent 1-HeLa or SH-SY5Y cells in 6-well dishes and allowed to attach for 24 h, then treated with XCT 790 (5 μM) and/or 3-MA (5 mM) and/or lithium chloride (10 mM) in fed condition for 2 h. After treatments, the cell lysates are analyzed by immunoblotting.
Mammalian cell lysates preparation: After treatments, cells are collected in Laemmli buffer to perform LC3 processing assay, P70S6K, AMPK, ULK1 and 4E-BP1 immunoblotting. Samples are electrophoresed onto SDS-PAGE (8-15%) and then transferred onto PVDF (Bio-Rad) membrane through Transblot turbo (Bio-Rad). Blots are stained with Ponceau S, then probed with appropriate primary antibodies at 4° C. for overnight and subsequently HRP-conjugated secondary antibody. Signals are attained using enhanced chemiluminescence substrate (Clarity, Bio-Rad) and imaged using a gel documentation system (G Box, Syngene) and then bands are quantitated using Image software (NIH).

[2] = nutrient-rich and starvation conditions

## O=C1Nc2cc(Br)ccc2/C1=C1/Nc2ccccc2/C1=N\O [6-Bio, (2′Z,3′E)-6-Bromoindirubin-3′-oxime]
[1]; MPTP+Co, day 13
  distance travelled, Co versus MPTP: increased dramatically
[1]; administered after 48 h MPTP
  distance travelled, Post versus MPTP: not protected

## Cc1ccc(S(=O)(=O)/C=C/C#N)cc1 [Bay11, 3-[(4-methylphenyl)sulfonyl]-(2E)-propenenitrile]
p62/SQSTM1
  endogenous p62 aggregates: significant accumulation of endogenous p62 aggregates
aminopeptidase
  form of aminopeptidase upon proteinase K treatment: only the mature form of aminopeptidase
p62, MAP1LC3B-II
  MAP1LC3B-II levels in Atg5+/+ MEFs: reduces MAP1LC3B-II levels
  endogenous p62 levels in Atg5+/+ MEFs: significantly increases endogenous p62 levels
  endogenous p62 levels in Atg5−/− MEFs: no significant effect
MAP1LC3B; 12 hours
  MAP1LC3B-II/MAP1LC3B-I and MAP1LC3B-II/TUBB ratios, prolonged treatment: significant reduction
MAP1LC3B; in the presence of BFA
  MAP1LC3B-II/TUBB ratio with BFA (autophagosome synthesis): reduces MAP1LC3B12 II/TUBB ratio
MAP1LC3B; [2]
  MAP1LC3B-II/MAP1LC3B-I ratio: decreases MAP1LC3B-II/MAP1LC3B-I ratio
  MAP1LC3B-II/TUBB ratio: no significant changes

## COc1cc(C=C(C#N)C(=O)Nc2nnc(C(F)(F)F)s2)ccc1OCc1ccc(C(F)(F)F)cc1C(F)(F)F [XCT 790, 3-[4-(2,4-Bis-trifluoromethylbenzyloxy)-3-methoxyphenyl]-2-cyano-N-(5-trifluoromethyl-1,3,4-thiadiazol-2-yl)acrylamide]
LC3-II
  accumulation of LC3-II levels: ~2.5 fold
